Laboratory results reported in patent US10143201B2, “Fungicidal compositions” (Syngenta Crop Protection LLC, priority 2007, dated 2018).

Tests used:
Assay type in all cases: cell-based
[1] = tested on: Pseudocercosporella herpotrichoides (syn. Tapesia yallundae); assay: Fungicidal action against Pseudocercosporella herpotrichoides (eye spot of cereals), microtiter growth inhibition; conditions: Oculimacula yallundae, alone; for inhibition at 0.0156 ppm / inhibition at 0.25 ppm: read-out: % activity; for inhibition at 0.125 ppm: 0.1250 ppm; for inhibition at 0.25 ppm: 0.2500 ppm
Procedure: Example B5: Funicidal Action Against Pseudocercosporella herpotrichoides (Syn. Tapesia yallundae), Eye Spot of Cereals
(§1) Conidia of the fungus from cryogenic storage are directly mixed into nutrient broth (PDB potato dextrose broth). After placing a (DMSO) solution of the test compounds into a microtiter plate (96-well format) the nutrient broth containing the fungal spores is added. The test plates are incubated at 24° C. and the inhibition of growth is evaluated after 4 days. The expected fungicidal action is calculated according to the Colby method.

Pyrenophora teres = assay: Fungicidal action against Pyrenophora teres (net blotch), microtiter growth inhibition; conditions: for inhibition at 0.125 ppm / inhibition at 0.5 ppm / inhibition at 1 ppm / inhibition at 0.0625 ppm: read-out: % activity; for inhibition at 0.5 ppm: 0.5000 ppm; for % activity: alone; for inhibition at 0.25 ppm: 0.2500 ppm
Procedure: Example B6: Fungicidal Action Against Pyrenophora teres (Net Blotch)
as §1

Botrytis cinerea = assay: Fungicidal action against Botrytis cinerea (gray mould), microtiter growth inhibition; conditions: alone
Procedure: Example B2: Fungicidal Action Against Botrytis cinerea (Gray Mould)
as §1

Septoria tritici = assay: Fungicidal action against Septoria tritici (leaf blotch), microtiter growth inhibition; conditions: alone; for inhibition at 0.125 ppm: 0.1250 ppm
Procedure: Example B3: Fungicidal Action Against Septoria tritici (Leaf Blotch)
as §1

Alternaria solani = assay: Fungicidal action against Alternaria solani (early blight tomato/potato), microtiter growth inhibition; conditions: alone
Procedure: Example B4: Fungicidal Action Against Alternaria solani (Early Blight Tomato/Potato)
as §1, with “after 3” for “after 4”

Gaeumannomyces graminis = assay: Fungicidal action against Gaeumannomyces graminis (take-all of cereals), microtiter growth inhibition; conditions: Gaeumannomyces graminis, compound alone
Procedure: Example B7: Fungicidal Action Against Gaeumannomyces graminis (Take-all of Cereals)
as §1, with “Mycelial fragments” for “Conidia”, “24 C” for “24° C.”, “days.” for “days. The expected fungicidal action is calculated according to the Colby method.”

[2] = tested on: Cercospora arachidicola (syn. Mycosphaerella arachidis); assay: Fungicidal action against Cercospora arachidicola (brown leaf spot of groundnut), microtiter growth inhibition; conditions: Mycosphaerella arachidis, compound alone
Procedure: Example B8: Fungicidal Action Against Cercospora arachidicola (Syn. Mycosphaerella arachidis), Brown Leaf Spot of Groundnut (Peanut)
as §1, with “24 C” for “24° C.”, “7” for “4”, “days.” for “days. The expected fungicidal action is calculated according to the Colby method.”

[3] = Pyrenophora teres, compound alone, 0.1250 ppm
[4] = Pyrenophora teres, compound alone
[5] = Zymoseptoria tritici, 0.0625 ppm, read-out: % activity
[6] = Zymoseptoria tritici, read-out: % activity
[7] = Alternaria solani, 0.2500 ppm, read-out: % activity
[8] = Pyrenophora teres, compound alone, 0.0625 ppm

## Fc1ccc([C@]2(Cn3cncn3)O[C@H]2c2ccccc2Cl)cc1 (racemic) [Epoxiconazole, epoxiconazole]
[1]
  inhibition at 0.0156 ppm: 0%
  inhibition at 0.125 ppm: 70%
  inhibition at 0.25 ppm: 90%
Pyrenophora teres; [3]
  inhibition at 0.125 ppm: 20%
Pyrenophora teres; [4]
  inhibition at 0.5 ppm: 50%
  inhibition at 1 ppm: 70%

## CO/C=C(/C(=O)OC)c1ccccc1Oc1cc(Oc2ccccc2C#N)ncn1 [Azoxystrobin, azoxystrobin]
Botrytis cinerea; 0.1250 ppm
  % activity: 0%
Botrytis cinerea; 0.2500 ppm
  % activity: 0%
Botrytis cinerea; 0.5000 ppm
  % activity: 0%
Botrytis cinerea; 1.0000 ppm
  % activity: 0%
Botrytis cinerea; 2.0000 ppm
  % activity: 0%
Septoria tritici; 0.0625 ppm
  % activity: 70%
Alternaria solani; 0.0156 ppm
  % activity: 20%
Alternaria solani; 0.0313 ppm
  % activity: 20%
Alternaria solani; 0.0625 ppm
  % activity: 20%
Alternaria solani; 0.2500 ppm
  % activity: 50%
Alternaria solani; 0.5000 ppm
  % activity: 50%
Pyrenophora teres; 0.0313 ppm
  % activity: 20%
Pyrenophora teres; 0.0625 ppm
  % activity: 50%
Pyrenophora teres; 0.1250 ppm
  % activity: 70%

## N#Cc1c(Cl)c(Cl)c(Cl)c(C#N)c1Cl [Chlorothalonil, chlorothalonil]
Septoria tritici; [5]
  inhibition at 0.0625 ppm: 0%
Septoria tritici; [6]
  inhibition at 0.125 ppm: 0%
[1]
  inhibition at 0.0156 ppm: 0%
  inhibition at 0.0313 ppm: 50%
  inhibition at 0.125 ppm: 90%
Pyrenophora teres; [4]
  inhibition at 0.25 ppm: 0%
  inhibition at 0.5 ppm: 20%

## O=C(NCCc1ncc(C(F)(F)F)cc1Cl)c1ccccc1C(F)(F)F [Compound B-5.12, N-{2-[3-chloro-5-(trifluoromethyl)pyridin-2-yl]ethyl}-2-(trifluoromethyl)benzamid]
Gaeumannomyces graminis; read-out: % activity
  inhibition at 0.0039 ppm: 0%
  inhibition at 0.0313 ppm: 0%
Gaeumannomyces graminis; 0.0078 ppm, read-out: % activity
  inhibition at 0.0078 ppm: 0%
Gaeumannomyces graminis
  inhibition at 0.0156 ppm: 0%
Gaeumannomyces graminis; 0.1250 ppm
  inhibition at 0.125 ppm: 0%
Gaeumannomyces graminis; 0.2500 ppm
  inhibition at 0.25 ppm: 0%
Gaeumannomyces graminis; 0.5000 ppm
  inhibition at 0.5 ppm: 0%
Gaeumannomyces graminis; 1.0000 ppm
  inhibition at 1 ppm: 0%
Gaeumannomyces graminis; 2.0000 ppm
  inhibition at 2 ppm: 0%
[2]; 0.0313 ppm
  inhibition at 0.0313 ppm: 0%
[2]; 0.0625 ppm
  inhibition at 0.0625 ppm: 0%
[2]; 0.1250 ppm
  inhibition at 0.125 ppm: 20%
[2]; 0.2500 ppm
  inhibition at 0.25 ppm: 20%

## CC(C1CC1)C(O)(Cn1cncn1)c1ccc(Cl)cc1 (centres unmarked) [Cyproconazole, cyproconazole]
Alternaria solani; Alternaria solani, 0.1250 ppm
  inhibition at 0.125 ppm: 0%
Alternaria solani; [7]
  inhibition at 0.25 ppm: 0%
Alternaria solani; Alternaria solani, 0.5000 ppm, read-out: % activity
  inhibition at 0.5 ppm: 20%
[1]
  inhibition at 0.25 ppm: 70%
Gaeumannomyces graminis; read-out: % activity
  inhibition at 0.0039 ppm: 0%
  inhibition at 0.0313 ppm: 0%
  inhibition at 0.0625 ppm: 20%

## Cc1cc(C2CC2)nc(Nc2ccccc2)n1 [Cyprodinil, cyprodinil]
Septoria tritici; [6]
  inhibition at 0.125 ppm: 0%
Septoria tritici; Zymoseptoria tritici, 0.2500 ppm, read-out: % activity
  inhibition at 0.25 ppm: 0%
Septoria tritici; Zymoseptoria tritici, 0.5000 ppm, read-out: % activity
  inhibition at 0.5 ppm: 0%
Septoria tritici; Zymoseptoria tritici, 1.0000 ppm
  inhibition at 1 ppm: 0%
Septoria tritici; Zymoseptoria tritici, 2.0000 ppm
  inhibition at 2 ppm: 0%
Alternaria solani; [7]
  inhibition at 0.25 ppm: 50%
[1]
  inhibition at 0.0156 ppm: 20%
  inhibition at 0.0313 ppm: 70%
Pyrenophora teres; Pyrenophora teres, compound alone, 0.0313 ppm
  inhibition at 0.0313 ppm: 20%
Pyrenophora teres; [8]
  inhibition at 0.0625 ppm: 20%
Pyrenophora teres; [3]
  inhibition at 0.125 ppm: 50%
Pyrenophora teres; [4]
  inhibition at 0.25 ppm: 50%

## CC1COC(Cn2cncn2)(c2ccc(Oc3ccc(Cl)cc3)cc2Cl)O1 (centres unmarked) [Difenoconazole, difenoconazole]
Septoria tritici; Zymoseptoria tritici, 0.0313 ppm
  inhibition at 0.0313 ppm: 50%
Septoria tritici; [5]
  inhibition at 0.0625 ppm: 90%
[1]
  inhibition at 0.125 ppm: 50%
Pyrenophora teres; [8]
  inhibition at 0.0625 ppm: 20%
Pyrenophora teres; [3]
  inhibition at 0.125 ppm: 50%
Pyrenophora teres; [4]
  inhibition at 0.25 ppm: 50%
  inhibition at 0.5 ppm: 70%
  inhibition at 1 ppm: 70%
Gaeumannomyces graminis; read-out: % activity
  inhibition at 0.0039 ppm: 0%
  inhibition at 0.0313 ppm: 0%
  inhibition at 0.0625 ppm: 0%
Gaeumannomyces graminis
  inhibition at 0.0156 ppm: 0%
